Source: patent US6420535B1, “6-O-carbamate ketolide derivatives” (Abbott Laboratories, priority 1999, dated 2002)
≈ marks a conversion by molar mass, not a printed value.

How the values were obtained:
Type in all cases: cell-based
[1] = system: Streptococcus pneumonia GYR 1171; test: Separate in vitro antibacterial assay (H. Influenza / S. Pneumonia); details: protocol as for Table 1, unit assumed
Procedure: (§1) Representative compounds of the present invention were assayed in vitro for antibacterial activity as follows: Twelve petri dishes containing successive aqueous dilutions of the test compound mixed with 10 mL of sterilized Brain Heart Infusion (BHI) agar (Difco 0418-01-5) were prepared. Each plate was inoculated with 1:100 (or 1:10 for slow-growing strains, such as Micrococcus and Streptococcus) dilutions of up to 32 different microorganisms, using a Steers replicator block. The inoculated plates were incubated at 35-37° C. for 20 to 24 hours. In addition, a control plate, using BHI agar containing no test compound, was prepared and incubated at the beginning and end of each test.
(§2) An additional plate containing a compound having known susceptibility patterns for the organisms being tested and belonging to the same antibiotic class as the test compound was also prepared and incubated as a further control, as well as to provide test-to-test comparability. Erythromycin A was used for this purpose.
(§3) After incubation, each plate was visually inspected. The minimum inhibitory concentration (MIC) was defined as the lowest concentration of drug yielding no growth, a slight haze, or sparsely isolated colonies on the innoculum spot as compared to the growth control. The results of this assay, which relate to the antibacterial activity of the compounds of the invention, are reported below in Table 1.
(§4) In a separate assay representative compounds of the invention were assayed in vitro for antibacterial activity against H. Influenza Dill AMP R strain and S. Pneumonia, according to the protocol described above. The results of this assay, which relate to the antibacterial activity of compounds of the invention against the H. Influenza Dill AMP R and S. Pneumonia organisms, are shown below in Table 2.

[2] = system: Haemophilis influenzae DILL AMP R; test: as above; details: protocol as for Table 1, unit assumed
Procedure: as §1, §2, §3, §4

[3] = system: Streptococcus pneumonia 5649; test: as above; details: protocol as for Table 1, unit assumed
Procedure: as §1, §2, §3, §4

[4] = system: Streptococcus pneumonia ATCC63O3; test: as above; details: protocol as for Table 1, unit assumed
Procedure: as §1, §2, §3, §4

[5] = system: Streptococcus bovis A-5169; test: In vitro antibacterial MIC, agar dilution (BHI agar); details: 35-37° C., 20 to 24 hours, unit assumed
Procedure: as §1, §2, §3

[6] = system: Micrococcus luteus ATCC 4698; test: as above; details: 35-37° C., 20 to 24 hours, unit assumed
Procedure: as §1, §2, §3

[7] = system: Streptococcus pyogenes 930; test: as above; details: 35-37° C., 20 to 24 hours, unit assumed
Procedure: as §1, §2, §3

[8] = system: Staphylococcus aureus A5177; test: as above; details: 35-37° C., 20 to 24 hours, unit assumed
Procedure: as §1, §2, §3

[9] = system: Staphylococcus aureus ATCC 6538P; test: as above; details: 35-37° C., 20 to 24 hours, unit assumed
Procedure: as §1, §2, §3

Candida albicans CCH 442 = test: as above; details: 35-37° C., 20 to 24 hours, unit assumed
Procedure: as §1, §2, §3

[10] = system: Streptococcus pyogenes EES61; test: as above; details: 35-37° C., 20 to 24 hours, unit assumed
Procedure: as §1, §2, §3

[11] = system: Nocardia asteroides ATCC997O; test: as above; details: 35-37° C., 20 to 24 hours, unit assumed
Procedure: as §1, §2, §3

[12] = system: Streptococcus agalactiae CMX 508; test: as above; details: 35-37° C., 20 to 24 hours, unit assumed
Procedure: as §1, §2, §3

Escherichia coli JUHL = test: as above; details: 35-37° C., 20 to 24 hours, unit assumed
Procedure: as §1, §2, §3

[13] = system: Streptococcus pyogenes PIU 2548; test: as above; details: 35-37° C., 20 to 24 hours, unit assumed
Procedure: as §1, §2, §3

[14] = system: Staphylococcus aureus 1775; test: as above; details: 35-37° C., 20 to 24 hours, unit assumed
Procedure: as §1, §2, §3

[15] = system: Staphylococcus epidermidis 3519; test: as above; details: 35-37° C., 20 to 24 hours, unit assumed
Procedure: as §1, §2, §3

[16] = system: Staphylococcus aureus NCTC10649M; test: as above; details: 35-37° C., 20 to 24 hours, unit assumed
Procedure: as §1, §2, §3

[17] = system: Mycobacterium smegmatis ATCC 114; test: as above; details: 35-37° C., 20 to 24 hours, unit assumed
Procedure: as §1, §2, §3

[18] = system: Staphylococcus aureus A-5278; test: as above; details: 35-37° C., 20 to 24 hours, unit assumed
Procedure: as §1, §2, §3

Escherichia coli SS = test: as above; details: 35-37° C., 20 to 24 hours, unit assumed
Procedure: as §1, §2, §3

Escherichia coli DC-2 = test: as above; details: 35-37° C., 20 to 24 hours, unit assumed
Procedure: as §1
(§5) An additional plate containing a compound having known susceptibility patterns for the organisms being tested and belonging to the same antibiotic class as the test compound was also prepared and incubated as a further control, as well as to provide test-to-test comparability.
(§6) After incubation, each plate was visually inspected. The minimum inhibitory concentration (MIC) was defined as the lowest concentration of drug yielding no growth, a slight haze, or sparsely isolated colonies on the innoculum spot as compared to the growth control.

[19] = system: Streptococcus pneumonia 5979; test: Separate in vitro antibacterial assay (H. Influenza / S. Pneumonia); details: protocol as for Table 1, unit assumed
Procedure: as §1, §5, §6

[20] = system: Staphylococcus aureus CMX 553; test: In vitro antibacterial MIC, agar dilution (BHI agar); details: 35-37° C., 20 to 24 hours, unit assumed
Procedure: as §1, §2, §3

[21] = system: Staphylococcus aureus CMX 642A; test: as above; details: 35-37° C., 20 to 24 hours, unit assumed
Procedure: as §1, §2, §3

[22] = system: Micrococcus luteus ATCC 9341; test: as above; details: 35-37° C., 20 to 24 hours, unit assumed
Procedure: as §1, §2, §3

| Structure (SMILES) | MIC (antibacterial activity, Table 2) [1] [µg/mL] | MIC (antibacterial activity, Table 2) [2] [µg/mL] | MIC (antibacterial activity, Table 2) [3] [µg/mL] | MIC (antibacterial activity, Table 2) [4] [µg/mL] | MIC [5] [µg/mL] | MIC [6] [µg/mL] | MIC [7] [µg/mL] | MIC [8] [µg/mL] | MIC [9] [µg/mL] | MIC (Candida albicans CCH 442) [µg/mL] | MIC [10] [µg/mL] | MIC [11] [µg/mL] | MIC [12] [µg/mL] | MIC (Escherichia coli JUHL) [µg/mL] | MIC [13] [µg/mL] | MIC [14] [µg/mL] | MIC [15] [µg/mL] | MIC [16] [µg/mL] | MIC [17] [µg/mL] | MIC [18] [µg/mL] | also measured |
| --- | --- | --- | --- | --- | --- | --- | --- | --- | --- | --- | --- | --- | --- | --- | --- | --- | --- | --- | --- | --- | --- |
| CCC1OC(=O)C(C)C(=O)C(C)C(OC2OC(C)CC(N(C)C)C2O)C(C)(OC(=O)NC(=O)c2ccccc2)CC(C)C(=NO)C(C)C2OC(=O)OC12C (centres unmarked) [Ex. 1, Compound of Formula (IV-A): wherein A is —O—; X is N—OH; —M— is Absent, R^2 is Phenyl; and R^p is Hydrogen] | 0.03 | 8 | 2 | 0.03 | 0.02 | 0.39 | > 100 | 0.39 | 0.39 | > 100 | 0.02 | 0.78 | 0.02 | 50 | 1.56 | > 100 | 0.39 | 0.39 | 50 | > 100 | MIC (Escherichia coli SS): 0.39 µg/mL; MIC (Escherichia coli DC-2): 100 µg/mL; MIC (antibacterial activity, Table 2) [19]: > 64 µg/mL |
| CCC1OC(=O)C(C)C(=O)C(C)C(OC2OC(C)CC(N(C)C)C2O)C(C)(OC(N)=O)CC(C)C(=NO)C(C)C2OC(=O)OC12C (centres unmarked) [Ex. 2, Compound of Formula (II-A), wherein A is —O—; X is N—OH; —M— is Absent; R^2 is Hydrogen, and R^p is Hydrogen] | 0.25 | 8 | 8 | 0.25 | 0.2 | 1.56 | > 100 | 3.1 | 1.56 | > 100 | 0.39 | 6.2 | 0.39 | > 100 | 3.1 | > 100 | 1.56 | 1.56 | 50 | > 100 | MIC (Escherichia coli SS): 1.56 µg/mL; MIC (Escherichia coli DC-2): > 100 µg/mL; MIC (antibacterial activity, Table 2) [19]: > 128 µg/mL |
| CC[C@H]1OC(=O)[C@H](C)[C@@H](O[C@H]2C[C@@](C)(OC)[C@@H](O)[C@H](C)O2)[C@H](C)[C@@H](O[C@@H]2O[C@H](C)C[C@H](N(C)C)[C@H]2O)[C@](C)(O)C[C@@H](C)C(=O)[C@H](C)[C@@H](O)[C@]1(C)O [Ery. A, Erythromycin A, reference compound] | 0.06 (≈ 0.0818 µM) | 4 (≈ 5.45 µM) | 16 (≈ 21.8 µM) | 0.06 (≈ 0.0818 µM) | 0.02 (≈ 0.0273 µM) | 0.2 (≈ 0.273 µM) | > 100 | 3.1 (≈ 4.22 µM) | 0.2 (≈ 0.273 µM) | > 100 | 0.05 (≈ 0.0681 µM) | 0.1 (≈ 0.136 µM) | 0.05 (≈ 0.0681 µM) | > 100 | 6.2 (≈ 8.45 µM) | > 100 | 0.39 (≈ 0.531 µM) | 0.39 (≈ 0.531 µM) | 3.1 (≈ 4.22 µM) | > 100 | MIC [20]: 0.39 µg/mL (≈ 0.531 µM); MIC [21]: 0.39 µg/mL (≈ 0.531 µM); MIC [22]: 0.05 µg/mL (≈ 0.0681 µM); MIC (Escherichia coli SS): 0.78 µg/mL (≈ 1.06 µM); MIC (Escherichia coli DC-2): > 100 µg/mL |
